Data from US20260078130A1, “NAMPT MODULATORS, PREPARATIONS, AND USES THEREOF” (SIRONAX LTD., priority 2022, published 2026).
Where two headings read alike, the source gives them in different places.

Tests used:
[1] = molecular target: T1, human enzyme NAMPT (full length) (Homo sapiens, UniProt P43490); assay: NMN fluorescence biochemical assay (stimulation of NMN synthesis by NAMPT); conditions: for EC50: concentration giving half-maximal activation, read-out: Enzymatic EC50; for Enzymatic Emax: fold change of maximal activation compared to DMSO
T1 construct: human enzyme NAMPT (full length)
Outline: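 Full-length human NAMPT (100 nM) was preincubated 15 min at 37 °C with compound in 50 mM Tris-HCl pH 7.5, 10 mM MgCl2, 2 mM DTT, then reacted 1 h at 37 °C with 50 μM NAM, 100 μM PRPP, 4 mM ATP (stated solution concentrations). NMN was derivatised with acetophenone/KOH then formic acid and read at Ex/Em 382/445 nm; EC50 and Emax (fold over DMSO) reported.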

[2] = tested on: endogenous NAMPT in U2OS cells; assay: Cellular NAD+ modulation assay (NAD/NADH-Glo, U2OS cells); format: cell-based; conditions: Homo sapiens; for maximal fold induction: read-out: Cellular Emax
Outline: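 Endogenous NAMPT stimulation in U2OS cells treated with compound dilution series for 24 h at 37 °C. Cells lysed with DTAB base, acid-treated 15 min at 60 °C, neutralized, NAD+ read by NAD/NADH-Glo luminescence after 40 min at room temperature. EC50 and Emax (fold over DMSO) derived.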

[3] = NMN synthesis by purified human NAMPT (100 nM)
[4] = 24 hours incubation with compound
[5] = NMN fluorescence assay, purified human NAMPT 100 nM
[6] = 24 hours incubation, cellular NAD+

T1 sequence (P43490 whole entry): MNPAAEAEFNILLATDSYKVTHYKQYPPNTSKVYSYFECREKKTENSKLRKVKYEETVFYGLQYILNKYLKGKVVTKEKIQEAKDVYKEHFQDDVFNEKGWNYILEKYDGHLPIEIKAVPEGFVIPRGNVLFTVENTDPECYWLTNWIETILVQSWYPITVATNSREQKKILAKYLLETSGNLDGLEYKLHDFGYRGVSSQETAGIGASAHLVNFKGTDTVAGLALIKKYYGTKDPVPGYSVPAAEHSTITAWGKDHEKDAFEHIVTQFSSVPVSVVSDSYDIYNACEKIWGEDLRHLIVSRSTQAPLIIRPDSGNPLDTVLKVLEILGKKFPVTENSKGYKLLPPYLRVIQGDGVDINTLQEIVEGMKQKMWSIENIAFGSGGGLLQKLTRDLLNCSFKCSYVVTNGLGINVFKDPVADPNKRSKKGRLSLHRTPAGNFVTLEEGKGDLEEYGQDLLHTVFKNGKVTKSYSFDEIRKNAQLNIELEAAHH

Structure (SMILES) | EC50 [1, 3] [µM] | Enzymatic Emax [1] | EC50 [2, 4] [µM] | EC50 [1, 5] [µM] | EC50 [2, 6] [µM] | maximal fold induction [2, 4] | maximal fold induction [2, 6]
Cc1ccc2c(c1)C(C)N(Cc1ccc3[nH]c(=O)oc3c1)C2=O (single isomer, unassigned) [Compound 163] | ≥ 5 | A (A>3) | 0.5 to 5 | – | – | > 1.5 | –
O=C1c2cccc(Br)c2C(=O)N1Cc1ccc(O)cc1 [Compound 296, 4-bromo-2-(4-hydroxybenzyl)isoindoline-1,3-dione] | 0.5 to 5 | C (2≥C) | 0.5 to 5 | – | – | 1.2 to 1.5 | –
Cn1ncc(Cl)c1CC1c2cc(C#N)ccc2C(=O)N1CC1CC2(CNC(=O)O2)C1 (stereo not shown) [Compound 464, 3-((4-chloro-1-methyl-1H-pyrazol-5-yl)methyl)-1-oxo-2-((6-oxo-5-oxa-7-azaspiro[3.4]octan-2-yl)methyl)isoindoline-5-carbonitrile] | – | B (3≥B>2) | – | 0.5 to 5 | 0.5 to 5 | – | > 1.5
CC1c2ccccc2C(=O)N1Cc1ccc(NC(=O)NCc2cn[nH]c2)cc1 (stereo not shown) [Compound 292, 1-((1H-pyrazol-4-yl)methyl)-3-(4-((1-methyl-3-oxoisoindolin-2-yl)methyl)phenyl)urea] | < 0.5 | C (2≥C) | < 0.5 | – | – | ≤ 1.2 | –
COC1CN(c2ccc3c(c2)C(C)N(Cc2ccc4[nH]c(=O)oc4c2)C3=O)C1 (stereo not shown) [Compound 128, 6-((5-(3-methoxyazetidin-1-yl)-3-methyl-1-oxoisoindolin-2-yl)methyl)benzo[d]oxazol-2(3H)-one] | ≥ 5 | B (3≥B>2) | 0.5 to 5 | – | – | > 1.5 | –
CN1CCn2c(cc(Cl)c2CC2c3ccccc3C(=O)N2CC2CC3(CNC(=O)O3)C2)C1 (stereo not shown) [Compound 484, 2-((1-((7-chloro-2-methyl-1,2,3,4-tetrahydropyrrolo[1,2-a]pyrazin-6-yl)methyl)-3-oxoisoindolin-2-yl)methyl)-5-oxa-7-azaspiro[3.4]octan-6-one] | – | B (3≥B>2) | – | 0.5 to 5 | < 0.5 | – | 1.2 to 1.5
Cc1noc2cc(CN3C(=O)c4ccccc4C3Cc3c(Cl)cnn3C)ccc12 (stereo not shown) [Compound 594, 3-((4-chloro-1-methyl-1H-pyrazol-5-yl)methyl)-2-((3-methylbenzo[d]isoxazol-6-yl)methyl)isoindolin-1-one] | – | B (3≥B>2) | – | ≥ 5 | < 0.5 | – | 1.2 to 1.5
Cn1ncc(Cl)c1CC1c2ccccc2C(=O)N1CC1CC2(CNC(=S)O2)C1 (stereo not shown) [Compound 490, 3-((4-chloro-1-methyl-1H-pyrazol-5-yl)methyl)-2-((6-thioxo-5-oxa-7-azaspiro[3.4]octan-2-yl)methyl)isoindolin-1-one] | – | B (3≥B>2) | – | 0.5 to 5 | 0.5 to 5 | – | > 1.5
COc1ccc(CN2C(Cc3c(Cl)cnn3C)c3ccccc3S2(=O)=O)cc1 (stereo not shown) [Compound 641, 3-((4-chloro-1-methyl-1H-pyrazol-5-yl)methyl)-2-(4-methoxybenzyl)-2,3-dihydrobenzo[d]isothiazole 1,1-dioxide] | – | A (A>3) | – | ≥ 5 | < 0.5 | – | 1.2 to 1.5
Cn1ncc(Cl)c1CC1c2cc(OC(F)F)ccc2C(=O)N1CC1CC2(CNC(=O)O2)C1 (stereo not shown) [Compound 541, 2-((3-((4-chloro-1-methyl-1H-pyrazol-5-yl)methyl)-5-(difluoromethoxy)-1-oxoisoindolin-2-yl)methyl)-5-oxa-7-azaspiro[3.4]octan-6-one] | – | B (3≥B>2) | – | 0.5 to 5 | < 0.5 | – | > 1.5
Cn1c(CC2c3ccccc3C(=O)N2CC2CC3(CNC(=O)O3)C2)c(Cl)ccc1=O (stereo not shown) [Compound 467, 2-((1-((3-chloro-1-methyl-6-oxo-1,6-dihydropyridin-2-yl)methyl)-3-oxoisoindolin-2-yl)methyl)-5-oxa-7-azaspiro[3.4]octan-6-one] | – | B (3≥B>2) | – | < 0.5 | < 0.5 | – | > 1.5
COc1ccc(CN2C(=O)c3ccc(C4CC4)cc3C2Cc2c(Cl)cnn2C)cc1 (stereo not shown) [Compound 624, 3-((4-chloro-1-methyl-1H-pyrazol-5-yl)methyl)-5-cyclopropyl-2-(4-methoxybenzyl)isoindolin-1-one] | – | B (3≥B>2) | – | 0.5 to 5 | 0.5 to 5 | – | 1.2 to 1.5
Cn1ncc(Cl)c1CC1c2ccccc2C(=O)N1CC1CC(C(N)=O)C1 (stereo not shown) [Compound 562, 3-((1-((4-chloro-1-methyl-1H-pyrazol-5-yl)methyl)-3-oxoisoindolin-2-yl)methyl)cyclobutane-1-carboxamide] | – | B (3≥B>2) | – | 0.5 to 5 | < 0.5 | – | 1.2 to 1.5
Cn1ncc(Cl)c1CC1c2cc(F)ccc2S(=O)(=O)N1CC1CC2(CNC(=O)O2)C1 (stereo not shown) [Compound 563, 2-((3-((4-chloro-1-methyl-1H-pyrazol-5-yl)methyl)-5-fluoro-1,1-dioxidobenzo[d]isothiazol-2(3H)-yl)methyl)-5-oxa-7-azaspiro[3.4]octan-6-one] | – | A (A>3) | – | 0.5 to 5 | < 0.5 | – | > 1.5

More lines, main results first:

EC50 [1, 3] [µM] | Enzymatic Emax [1] | EC50 [2, 4] [µM] | EC50 [1, 5] [µM] | EC50 [2, 6] [µM] | Structure (SMILES) | maximal fold induction [2, 4] | maximal fold induction [2, 6]
– | A (A>3) | – | < 0.5 | < 0.5 | Cn1ncc(Cl)c1CC1c2cc(Br)ccc2C(=O)N1Cc1ccc2[nH]nnc2c1 (stereo not shown) [Compound 326, 2-((1H-benzo[d][1,2,3]triazol-5-yl)methyl)-5-bromo-3-((4-chloro-1-methyl-1H-pyrazol-5-yl)methyl)isoindolin-1-one] | – | > 1.5
≥ 5 | A (A>3) | 0.5 to 5 | – | – | Cc1ccnc(CC2c3ccccc3C(=O)N2Cc2ccc3[nH]c(=O)oc3c2)c1 (stereo not shown) [Compound 156, 6-((1-((4-methylpyridin-2-yl)methyl)-3-oxoisoindolin-2-yl)methyl)benzo[d]oxazol-2(3H)-one] | > 1.5 | –
– | A (A>3) | – | < 0.5 | < 0.5 | Cc1ccnc(C#N)c1CC1c2cccc(F)c2C(=O)N1Cc1ccc2[nH]nnc2c1 (stereo not shown) [Compound 356, 3-((2-((1H-benzo[d][1,2,3]triazol-5-yl)methyl)-4-fluoro-3-oxoisoindolin-1-yl)methyl)-4-methylpicolinonitrile] | – | > 1.5
– | A (A>3) | – | 0.5 to 5 | 0.5 to 5 | O=C1c2ccccc2C(Cc2ncccc2Br)N1CCCc1c[nH]nn1 (stereo not shown) [Compound 347, 2-(3-(1H-1,2,3-triazol-4-yl)propyl)-3-((3-bromopyridin-2-yl)methyl)isoindolin-1-one] | – | > 1.5
< 0.5 | B (3≥B>2) | < 0.5 | – | – | N#Cc1nccc(Br)c1CC1c2ccccc2C(=O)N1Cc1ccc2[nH]nnc2c1 (stereo not shown) [Compound 282, 3-((2-((1H-benzo[d][1,2,3]triazol-5-yl)methyl)-3-oxoisoindolin-1-yl)methyl)-4-bromopicolinonitrile] | 1.2 to 1.5 | –
< 0.5 | A (A>3) | < 0.5 | – | – | O=C1c2ccccc2C(Cc2ncccc2Br)N1Cc1ccc2[nH]c(=O)oc2c1 (stereo not shown) [Compound 205, 6-((1-((3-bromopyridin-2-yl)methyl)-3-oxoisoindolin-2-yl)methyl)benzo[d]oxazol-2(3H)-one] | > 1.5 | –
0.5 to 5 | A (A>3) | 0.5 to 5 | – | – | Cc1ccccc1CC1c2ccncc2C(=O)N1Cc1ccc2[nH]c(=O)oc2c1 (stereo not shown) [Compound 168, 6-((1-(2-methylbenzyl)-3-oxo-1,3-dihydro-2H-pyrrolo[3,4-c]pyridin-2-yl)methyl)benzo[d]oxazol-2(3H)-one] | > 1.5 | –
– | B (3≥B>2) | – | < 0.5 | < 0.5 | Cc1cncc(C#N)c1CC1c2ccccc2C(=O)N1Cc1ccc2[nH]nnc2c1 (stereo not shown) [Compound 364, 4-((2-((1H-benzo[d][1,2,3]triazol-5-yl)methyl)-3-oxoisoindolin-1-yl)methyl)-5-methylnicotinonitrile] | – | > 1.5
– | B (3≥B>2) | – | < 0.5 | < 0.5 | Cc1ncnc(C#N)c1CC1c2ccccc2C(=O)N1Cc1ccc2[nH]nnc2c1 (stereo not shown) [Compound 384, 5-((2-((1H-benzo[d][1,2,3]triazol-5-yl)methyl)-3-oxoisoindolin-1-yl)methyl)-6-methylpyrimidine-4-carbonitrile] | – | > 1.5
– | A (A>3) | – | < 0.5 | < 0.5 | Cc1nn(C)c(C#N)c1CC1c2ccccc2C(=O)N1Cc1ccc2[nH]nnc2c1 (stereo not shown) [Compound 341, 4-((2-((1H-benzo[d][1,2,3]triazol-5-yl)methyl)-3-oxoisoindolin-1-yl)methyl)-1,3-dimethyl-1H-pyrazole-5-carbonitrile] | – | > 1.5
– | B (3≥B>2) | – | < 0.5 | < 0.5 | COCCOc1nn(C)c(CC2c3ccccc3C(=O)N2Cc2ccc3[nH]nnc3c2)c1Cl (stereo not shown) [Compound 371, 2-((1H-benzo[d][1,2,3]triazol-5-yl)methyl)-3-((4-chloro-3-(2-methoxyethoxy)-1-methyl-1H-pyrazol-5-yl)methyl)isoindolin-1-one] | – | > 1.5
